Values quoted from earlier work in patent US20060024236A1, “Bowel preparation for virtual colonoscopy” (priority 2004, published 2006).

Experiments:
[1] = compared with PEG
[2] = compared with PEG, cleansing before CC, meta-analysis of trials

| SMILES | residual colonic fluid at VC [1] | efficacy of colonic cleansing [2] | tolerability of oral cleansing agent [2] | opacification of residual colonic fluid (oral) | tagging of residual fecal material to distinguish it from true colonic polyps (oral, given as part of the colon prep) | interference with subsequent CC examination (orally administered) |
| --- | --- | --- | --- | --- | --- | --- |
| O=P(O)(O)O [NaP, sodium phosphate] | significantly less residual colonic fluid | more efficacious | better tolerated |  |  |  |
| O=S(=O)([O-])[O-].[Ba+2] [barium sulfate] |  |  |  | does not adequately opacify | effective | does not interfere |
